Experiments:
Bcl-2 = Bcl-2 expression (RT-PCR, Western blot) in U266 cells; format: cell-based, human; details: AG490
Method: Cells are lysed in a buffer composed of 50 mM Tris-Cl, pH 7.4, 5 mM EDTA, 150 mM NaCl, and 0.5% Triton-X 100 containing 1 mg/ml leupeptin and aprotinin, and 1 mM PMSF. Protein content of the cell lysates is quantified by the Bradford assay (Bio-Rad), and […] total protein is dissolved in Laemmli SDS-PAGE sample buffer prior to separation by 10% SDS-PAGE. Proteins are transferred to PVDF membrane and Western blot analysis is performed by standard techniques with ECL detection (Amersham). The Bcl-xL antibody, clone 124 (Dako), is used at a 1:2000 dilution. The Bcl-xL, antibody, clone S-18 (Santa Cruz Biotechnology), is used at a 1:500 dilution. Blots are quantified by densitometry and expression levels were normalized to b-actin (Sigma).
Total RNA is isolated by lysis in guanidine isothiocyanate followed by centrifugation through a cesium chloride gradient. cDNA is prepared from 200 ng of total RNA in a […] reaction with AMV-RT (Boehringer-Mannheim). […] Tem ml of PCR products are electrophoresed on a 5% acrylamide gel and quantified by phosphorimaging using ImageQuant software (Molecular Dynamics).

[1] = tested on: Bcl-xL overexpressing U266 cells; test: Drug-induced apoptosis in U266 cells overexpressing Bcl-xL; format: cell-based, human; details: stable U266 clones overexpressing Bcl-xL; 24 h for melphalan and mitoxantrone
Method: FIG. 23 Enforced Overexpression of Bcl-x Confers Resistance to Chemotherapy. Panel A: U266 cells are transfected with a CMV expression vector encoding Bcl-x, tagged with the FLAG epitope. Several stable, independent clones overexpressing Bcl-xL, as well as empty vector controls (Neo), are isolated and analyzed by Western blot with antibodies to Bcl-xL, or the FLAG epitope tag. B: The indicated cell lines are incubated with either melphalan (LPAM) or mitoxantrone for 24 h, and apoptosis is monitored by AnnexinV-FITC staining and flow cytometry. Overexpression of Bcl-xL protects the cells from chemotherapy-induced apoptosis.
These Bcl-xL overexpressing cells are resistant to apoptosis induced by AG490, as predicted since the ectopic Bcl-xL is expressed from a CMV promoter and is thus independent of JAK-STAT signaling. […] These findings support one embodiment of the present invention, that Bcl-x confers resistance to chemotherapy-induced apoptosis, and therefore that inhibition of STAT3 signaling promotes chemotherapy-induced apoptosis.

N#C/C(=C\c1ccc(O)c(O)c1)C(=O)NCc1ccccc1 [AG490]
expression of Bcl-2 (Bcl-2): no effect
apoptosis induced in Bcl-xL overexpressing cells [1]: resistant
